Test results reported in ChEMBL document CHEMBL5352479, “Prenylated flavonoids with significant anti-hepatoma activity from Daphne giraldii and effects on Fibroblast Growth Factor Receptor 1 (FGFR1)” (Eur J Med Chem, 2023).

Legend:
[1] = tested on: Hep 3B2; test: Induction of apoptosis in human Hep3B cells assessed as early apoptotic cells at 3 uM incubated for 48 hrs by Annexin V-FITC/PI staining based flow cytometry analysis (reference value: 1.26%); assay type: functional
[2] = tested on: Hep 3B2; test: Induction of apoptosis in human Hep3B cells assessed as viable cells at 3 uM incubated for 48 hrs by Annexin V-FITC/PI staining based flow cytometry analysis (reference value: 87.1%); assay type: functional; settings: read-out: Activity
[3] = tested on: Hep 3B2; test: Cytotoxicity against human Hep3B cells assessed as inhibition of cell proliferation incubated for 48 hrs by MTT assay; assay type: functional, cell-based
[4] = tested on: Hep 3B2; test: Induction of apoptosis in human Hep3B cells assessed as necrotic cells at 3 uM incubated for 48 hrs by Annexin V-FITC/PI staining based flow cytometry analysis (reference value: 6.12%); assay type: functional
[5] = tested on: HepG2; test: Cytotoxicity against human HepG2 cells assessed as inhibition of cell proliferation incubated for 48 hrs by MTT assay; assay type: functional, cell-based; settings: HepG2, 48 h
[6] = tested on: Hep 3B2; test: Induction of apoptosis in human Hep3B cells assessed as late apoptotic cells at 3 uM incubated for 48 hrs by Annexin V-FITC/PI staining based flow cytometry analysis (reference value: […]%); assay type: functional
[7] = tested on: Hep 3B2; test: Induction of apoptosis in human Hep3B cells assessed as viable cells at 3 uM incubated for 48 hrs by Annexin V-FITC/PI staining based flow cytometry analysis (reference value: 95.3%); assay type: functional; settings: read-out: Activity
[8] = tested on: Hep 3B2; test: Induction of apoptosis in human Hep3B cells assessed as early apoptotic cells at 3 uM incubated for 48 hrs by Annexin V-FITC/PI staining based flow cytometry analysis (reference value: 4.54%); assay type: functional
[9] = tested on: Hep 3B2; test: Induction of apoptosis in human Hep3B cells assessed as late apoptotic cells at 3 uM incubated for 48 hrs by Annexin V-FITC/PI staining based flow cytometry analysis (reference value: 0.117%); assay type: functional
[10] = tested on: Hep 3B2; test: Induction of apoptosis in human Hep3B cells assessed as necrotic cells at 3 uM incubated for 48 hrs by Annexin V-FITC/PI staining based flow cytometry analysis (reference value: 0%); assay type: functional

**Q.** `COc1c(-c2ccc(O)c(CC=C(C)C)c2)oc2cc(O)cc(O)c2c1=O` was tested. Which Activity [1] did it give?
**A.** Its Activity is 1.97%.

**Q.** And the viability at 3 µM [2]?
**A.** The viability at 3 µM was 87.1%.

**Q.** What about the IC50 [3] of the same compound?
**A.** Its IC50 is 0.99 µM.

**Q.** And the Activity [4]?
**A.** Its Activity is 2.29%.

**Q.** And the IC50 [5]?
**A.** The IC50 was 50.5 µM.

**Q.** And the Activity [6]?
**A.** The Activity was 8.68%.

**Q.** How did the IC50 [3] turn out when `COc1c(-c2ccc(O)c(O)c2)oc2c(CC=C(C)C)c(O)c(CC=C(C)C)c(O)c2c1=O` was run?
**A.** The IC50 was 17.7 µM.

**Q.** What about the IC50 [5] of the same compound?
**A.** Its IC50 is 43.3 µM.

**Q.** Which IC50 [3] does the source give for `COc1c(-c2cc(O)c(O)c(CC=C(C)C)c2)oc2c3c(cc(O)c2c1=O)OC(C(C)(C)O)C3` (centres undefined) here?
**A.** Its IC50 is 3.62 µM.

**Q.** What about the IC50 [5] of the same compound?
**A.** Its IC50 is over 50 µM.

**Q.** With `CC(C)=CCc1cc([C@H]2Oc3cc(O)ccc3C[C@H]2O)cc(CC=C(C)C)c1O` as the compound, how does the IC50 [3] read?
**A.** The IC50 was over 50 µM.

**Q.** What about the IC50 [5] of the same compound?
**A.** The IC50 was over 50 µM.

**Q.** Which viability at 3 µM [7] does the source give for `COc1c(-c2cc(O)c(O)c(CC=C(C)C)c2)oc2c(CC=C(C)C)c(O)cc(O)c2c1=O` here?
**A.** The viability at 3 µM was 49.3%.

**Q.** And the IC50 [3]?
**A.** Its IC50 is 1.07 µM.

**Q.** What about the Activity [8] of the same compound?
**A.** Its Activity is 41.2%.

**Q.** What about the IC50 [5] of the same compound?
**A.** Its IC50 is 32.6 µM.

**Q.** And the Activity [9]?
**A.** Its Activity is 9.35%.

**Q.** And the Activity [10]?
**A.** Its Activity is 0.121%.

**Q.** What does the source list for `C=C(C)C(O)Cc1cc(-c2oc3c(CC=C(C)C)c(O)cc(O)c3c(=O)c2OC)cc(O)c1O` (centres undefined)?
**A.** Activity [1]: 6.97%; viability at 3 µM [2]: 14.2%; IC50 [3]: 1.05 µM; Activity [4]: 2.75%; IC50 [5]: > 50 µM; Activity [6]: 76%

**Q.** What does the source list for `COC1=C(c2ccc(O)cc2)Oc2c(CC=C(C)C)c(O)cc(O)c2C1O` (centres undefined)?
**A.** IC50 [3]: 3.96 µM; IC50 [5]: 13.6 µM

**Q.** Which IC50 [3] does the source give for `COc1c(-c2ccc(O)c(O)c2)oc2c(CC=C(C)C)c(O)cc(O)c2c1=O` here?
**A.** Its IC50 is 2.39 µM.

**Q.** What about the IC50 [5] of the same compound?
**A.** Its IC50 is over 50 µM.

**Q.** Which IC50 [3] does the source give for `CC(C)=CCc1cc([C@H]2Oc3c(CC=C(C)C)c(O)cc(O)c3C(=O)[C@@H]2O)cc(CC=C(C)C)c1O` here?
**A.** Its IC50 is over 50 µM.

**Q.** And the IC50 [5]?
**A.** The IC50 was over 50 µM.

**Q.** Which IC50 [3] does the source give for `CC(C)=CCc1cc([C@@H]2Oc3c(CC=C(C)C)c(O)cc(O)c3C(=O)[C@H]2O)cc(CC=C(C)C)c1O` here?
**A.** Its IC50 is over 50 µM.

**Q.** What about the IC50 [5] of the same compound?
**A.** Its IC50 is over 50 µM.

**Q.** How did the IC50 [3] turn out when `COc1c(-c2cc(O)c(O)c(CC=C(C)C)c2CC=C(C)C)oc2cc(O)cc(O)c2c1=O` was run?
**A.** Its IC50 is 33.5 µM.

**Q.** What about the IC50 [5] of the same compound?
**A.** The IC50 was 39.1 µM.

**Q.** With `COc1c(-c2ccc(O)c(O)c2)oc2c3c(c(CC=C(C)C)c(O)c2c1=O)OC(C(C)(C)O)C3` (centres undefined) as the compound, how does the IC50 [3] read?
**A.** Its IC50 is 8.89 µM.

**Q.** What about the IC50 [5] of the same compound?
**A.** Its IC50 is 26.9 µM.

**Q.** Which viability at 3 µM [7] does the source give for `COc1c(-c2ccc(O)c(CC=C(C)C)c2)oc2c(CC=C(C)C)c(O)cc(O)c2c1=O` here?
**A.** Its viability at 3 µM is 51.9%.

**Q.** And the IC50 [3]?
**A.** The IC50 was 2.31 µM.

**Q.** What about the Activity [8] of the same compound?
**A.** Its Activity is 37.4%.

**Q.** What about the IC50 [5] of the same compound?
**A.** Its IC50 is over 50 µM.

**Q.** And the Activity [9]?
**A.** Its Activity is 10.7%.

**Q.** What about the Activity [10] of the same compound?
**A.** The Activity was 0.097%.

**Q.** How did the IC50 [3] turn out when `CC1(C)C=Cc2cc(-c3oc4cc(O)cc(O)c4c(=O)c3O)cc(O)c2O1` was run?
**A.** Its IC50 is 28.2 µM.

**Q.** And the IC50 [5]?
**A.** Its IC50 is over 50 µM.

**Q.** Which results are given for `C=C(C)C(O)Cc1c(O)c(CC=C(C)C)c2oc(-c3ccc(O)c(O)c3)c(OC)c(=O)c2c1O` (centres undefined)?
**A.** IC50 [3]: 37.1 µM; IC50 [5]: > 50 µM

**Q.** `CC1(C)Oc2ccc(-c3oc4cc(O)cc(O)c4c(=O)c3O)cc2CC1O` (centres undefined) was tested. Which IC50 [3] did it give?
**A.** Its IC50 is 9.55 µM.

**Q.** And the IC50 [5]?
**A.** Its IC50 is over 50 µM.

**Q.** Which IC50 [3] does the source give for `COc1c(-c2ccc(O)c(O)c2)oc2c(C/C=C(\C)CCC=C(C)C)c(O)cc(O)c2c1=O` here?
**A.** The IC50 was 4.8 µM.

**Q.** And the IC50 [5]?
**A.** The IC50 was 30.4 µM.

**Q.** For `C=C(C)C(O)Cc1cc(-c2oc3c(CC=C(C)C)c(O)cc(O)c3c(=O)c2OC)ccc1O` (centres undefined), which Activity [1] is on record?
**A.** The Activity was 19.6%.

**Q.** And the viability at 3 µM [2]?
**A.** Its viability at 3 µM is 59.7%.

**Q.** What about the IC50 [3] of the same compound?
**A.** The IC50 was 0.41 µM.

**Q.** What about the Activity [4] of the same compound?
**A.** The Activity was 0.923%.

**Q.** And the IC50 [5]?
**A.** Its IC50 is 42.2 µM.

**Q.** What about the Activity [6] of the same compound?
**A.** Its Activity is 19.7%.

**Q.** Which results are given for `COc1c(-c2cc(O)c3c(c2)CC(C(C)(C)O)O3)oc2c(CC=C(C)C)c(O)cc(O)c2c1=O` (centres undefined)?
**A.** Activity [1]: 15.4%; viability at 3 µM [2]: 33.8%; IC50 [3]: 0.49 µM; Activity [4]: 2.55%; IC50 [5]: 47.4 µM; Activity [6]: 48.2%

**Q.** For `COc1c(-c2cc(O)c3c(c2)CC(O)C(C)(C)O3)oc2c(CC=C(C)C)c(O)cc(O)c2c1=O` (centres undefined), which Activity [1] is on record?
**A.** Its Activity is 21.9%.

**Q.** And the viability at 3 µM [2]?
**A.** The viability at 3 µM was 23.3%.

**Q.** And the IC50 [3]?
**A.** Its IC50 is 0.63 µM.

**Q.** What about the Activity [4] of the same compound?
**A.** The Activity was 2.34%.

**Q.** What about the IC50 [5] of the same compound?
**A.** Its IC50 is 49.1 µM.

**Q.** And the Activity [6]?
**A.** Its Activity is 52.4%.

**Q.** Which IC50 [3] does the source give for `COc1c(-c2cc3c(c(O)c2CC=C(C)C)OC(C)(C)C=C3)oc2c(CC=C(C)C)c(O)cc(O)c2c1=O` here?
**A.** The IC50 was 6.37 µM.

**Q.** And the IC50 [5]?
**A.** The IC50 was 30.7 µM.

**Q.** How did the viability at 3 µM [7] turn out when `CC(C)=CCc1cc(-c2oc3c(CC=C(C)C)c(O)cc(O)c3c(=O)c2O)ccc1O` [BROUSSOFLAVONOL F] was run?
**A.** The viability at 3 µM was 55.1%.

**Q.** And the IC50 [3]?
**A.** Its IC50 is 1.15 µM.

**Q.** And the Activity [8]?
**A.** The Activity was 19.1%.

**Q.** And the IC50 [5]?
**A.** The IC50 was 30.8 µM.

**Q.** And the Activity [9]?
**A.** The Activity was 25.5%.

**Q.** And the Activity [10]?
**A.** The Activity was 0.251%.

**Q.** `CC(C)=CCc1cc(-c2oc3cc(O)cc(O)c3c(=O)c2O)ccc1O` [ISOLICOFLAVONOL] was tested. Which IC50 [3] did it give?
**A.** The IC50 was 11.5 µM.

**Q.** What about the IC50 [5] of the same compound?
**A.** Its IC50 is 44.7 µM.

**Q.** With `CNC(=O)c1cc(Oc2ccc(NC(=O)Nc3ccc(Cl)c(C(F)(F)F)c3)cc2)ccn1` [SORAFENIB] as the compound, how does the IC50 [3] read?
**A.** The IC50 was 8.55 µM.
